Common to all, as to assay type: biochemical
Assay [1] has as its target T1, recombinant human ADAMTS-5 (Homo sapiens, UniProt Q9UNA0).
T1 construct: purchased Chemicon International Inc. CC1034
T1 sequence (Q9UNA0 262-930): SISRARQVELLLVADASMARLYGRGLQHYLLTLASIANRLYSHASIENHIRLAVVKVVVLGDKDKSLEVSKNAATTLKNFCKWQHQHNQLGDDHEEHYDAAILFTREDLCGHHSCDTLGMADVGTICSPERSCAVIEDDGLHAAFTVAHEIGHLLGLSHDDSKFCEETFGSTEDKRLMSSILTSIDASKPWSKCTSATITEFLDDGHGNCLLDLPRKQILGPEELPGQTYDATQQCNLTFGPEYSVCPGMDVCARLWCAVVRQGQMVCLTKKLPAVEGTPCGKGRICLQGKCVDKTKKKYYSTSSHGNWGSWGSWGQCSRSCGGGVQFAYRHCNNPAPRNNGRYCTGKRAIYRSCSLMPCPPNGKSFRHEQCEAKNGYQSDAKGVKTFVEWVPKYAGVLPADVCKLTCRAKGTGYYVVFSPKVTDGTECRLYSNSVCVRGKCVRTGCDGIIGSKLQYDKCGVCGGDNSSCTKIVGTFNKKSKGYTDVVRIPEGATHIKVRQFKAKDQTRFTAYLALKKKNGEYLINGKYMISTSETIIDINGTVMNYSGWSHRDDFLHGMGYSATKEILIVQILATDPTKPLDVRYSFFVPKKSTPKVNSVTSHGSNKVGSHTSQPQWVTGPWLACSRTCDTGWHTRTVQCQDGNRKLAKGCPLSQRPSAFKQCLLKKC
Briefly: ADAMTS-5 mediated break down of aggrecan (SDS-PAGE, silver stain). Conditions: 10% racemic HICA, pH 7.4, incubation 2 d, FIG. 1 line 5. The protocol: (§1) As positive inhibitor controls Ilomastat (Ilo, CC1010, Millipore) and chlorhexidine (CHX, Corsodyl®, [2 mg/ml] (GlaxoSmithKline, Brøndby, Denmark) were used and 50 mM Tris-HCl-buffer (TNC): pH 7.5; 0.2 M NaCl; 1.0 mM CaCl2) was used as neutral assay buffer.
(§2) MMP-13 was preincubated 1 hour at 37° C. with p-aminophenylmercuric acetate (APMA, A9563, Sigma-Aldrich) to optimally activate (pro)MMP-13. As substrate, Aggrecan was added and then ADAMTS-5 or activated MMP-13 as catalytic/proteolytic enzyme and TNC, as neutral control, and 10% HICA, CHX or Ilo as protease/MMP-inhibitors let incubated together from 1 hour (h) to 2 days (d). The enzyme reactions terminated by boiling with modified Laemmli buffer. The samples were analysed by 8% SDS-PAGE and after electrophoresis the defragmentation of Aggrecan was visualised using Silver Stain Pierce®.
(§3) Sample with concentrations in lines: • 1. 0.25 μl molecular weight standards. Bio-Rad • 2. 4.2 μl Aggrecan (0.5 μg/μl) • 3. 4 μl ADAMTS-5 (0.1 μg/μl) • 4. 4.2 μl Aggrecan+4 μl ADAMTS-5+6 μl TNC-buffer. inc: 2d • 5. 4.2 μl Aggrecan+4 μl ADAMTS-5+6 μl 10% HICA. inc: 2d • 6. 4.2 μl Aggrecan+4 μl ADAMTS-5+6 μl CHX (2 mg/ml). inc: 2d • 7. 1 μl MMP-13 (0.2 μg/μl)+3 μl 2 mM APMA+6 μl TNC • 8. 4.2 μl Aggrecan+1 μl MMP-13 (0.2 μg/μl)+3 μl 2 mM APMA+6 μl TNC. inc: 1h • 9. 4.2 μl Aggrecan+1 μl MMP-13 (0.2 μg/μl)+3 μl 2 mM APMA+6 μl TNC. inc: 2d • 10. […]

For assay [2], the target named is T2, human Matrix metalloproteinase 13 (MMP-13) (Homo sapiens, UniProt P45452).
T2 construct: purchased BioTeZ, Berlin-Buch, Berlin, Germany 30100802
Briefly: MMP-13 mediated break down of aggrecan (SDS-PAGE, silver stain). Conditions: 10% racemic HICA, APMA-activated MMP-13, incubation 2 d, FIG. 1 line 11. Here is the method: as §1, §2, §3

Assay [3] addresses MMP-13 (Homo sapiens, UniProt P45452). Briefly: MMP-13 catalytic activity assay (modified pro-urokinase UKcol, chromogenic substrate S-2444, A405). Conditions: HICA 25 μg/ml, FIG. 2. Here is the method:
This example was carried out to test the inhibition of the catalytic activity of MMP-13. MMP-13 activity was measured as described previously (Hanemaaijer, Visser et al. 1998). In brief, MMP-13 was captured from biological fluids using MMP-13-specific monoclonal antibody-coated 96-well plates. The wells were washed three times with PBS-T (phosphate buffered saline solution containing 0.05% [v/v] Tween-20) and incubated with […] assay buffer (50 mM Tris-HCl, pH 7.6. 150 mM NaCl, 5 mM CaCl2, 1 μM ZnCl2 and 0.01% [v/v] Brij-35), to which 15 μl (50 μg/ml) modified pro-urokinase (UKcol) and 10 pl (6 mM stock) chromogenic substrate S-2444 was added. Color development was recorded by measurement of A405 using a Titertek Multiskan 8-channel photometer (Verheijen, Nieuwenbroek et al. 1997). For measurement of total activity (already active plus latent MMP-13) in biological fluid, the immobilized MMP-13 was incubated with assay buffer containing 0.5 mM APMA for 2 hr, after which UKcol and S-2444 were added and activity was recorded. (Hanemaaijer, Sier et al. 1999)
The protocol for this experiment: MMP-13 was activated with […] of APMA (p-aminophenylmercuric acetate, obtained from Sigma-Aldrich #A9563), after which MMP-13 was diluted and mixed with indicated inhibitors. Solution was let to incubate 30 minutes at 37° C. […]

Turning to `CC(C)CC(O)C(=O)O` (racemic) [HICA, 2-hydroxy-4-methylpentanoic acid], the “inhibition of break down of Aggrecan by ADAMTS-5” value in assay [1] was “inhibited the break down of Aggrecan”. The “inhibition of break down of Aggrecan by MMP-13” value in assay [2] is reported as “inhibited the break down of Aggrecan”. Besides, the “decreased activity of MMP-13” value in assay [3] (MMP-13 concentration 1.5 ng/ml) is 72%; in assay [3] (MMP-13 concentration 24 ng/ml), 73%.

(Values after patent publication US11793779B2, “Hica for use in prophylaxis and/or treatment of a disease or condition involving degradation of cartilage and/or disruption of cartilage homeostasis and/or integrity” (Salarusta Oy, priority 2020, dated 2023).)
